Here are results for 47 sequences from the OligoGym collection.

These antisense oligonucleotides have a phosphorothioate backbone; sugars and methylation of C are not fully specified.
Note: test concentration or dose not given here.

The first series has as its target GNAI1. The note with it: ASO.
Consider AAACTAAAGTCATAAATA, for which the remaining target (mRNA or protein) (fraction of control) is not below 1.

Take AACCAGGTCGTAGTCACT: the remaining target (mRNA or protein) (fraction of control) was 0.45.

AATCCTAAGTTGCCACTC gave a remaining target (mRNA or protein) (fraction of control) of 0.4.

Sequence ACTGCTTTGTATTGTTTA displayed a remaining target (mRNA or protein) (fraction of control) of 0.94.

On to AGAACAACTTTGGTCAAG, for which the remaining target (mRNA or protein) (fraction of control) was 0.88.

As for AGCCCTAATGATAGCAAT, the remaining target (mRNA or protein) (fraction of control) amounted to 0.33.

Regarding AGTCTATCTTCAACCTCC, the remaining target (mRNA or protein) (fraction of control) was determined as 0.92.

ATAAAGCCTTCTTCAGCA had a remaining target (mRNA or protein) (fraction of control) of 0.78.

Regarding ATTCAAATAGTATGCTGC, the remaining target (mRNA or protein) (fraction of control) was not below 1.

Sequence ATTTCCTTTGTGTCCTTT gave a remaining target (mRNA or protein) (fraction of control) of 0.41.

Another series concerns the target AKT1. The settings on record: ASO.
ACAGCGTGGCTTCTCTCA: the remaining target (mRNA or protein) (fraction of control) is 0.88.

Consider ACGTTCTTCTCCGAGTGC, for which the remaining target (mRNA or protein) (fraction of control) worked out at 0.7.

For AGCCAATGAAGGTGCCAT, the remaining target (mRNA or protein) (fraction of control) stood at 0.33.

Regarding AGTCTGGATGGCGGTTGT, the remaining target (mRNA or protein) (fraction of control) was found to be 0.51.

For the sequence ATTTGAACAACATAATAC, the remaining target (mRNA or protein) (fraction of control) came to 0.89.

As to CAACCCTCCTTCACAATA, the remaining target (mRNA or protein) (fraction of control) is 0.76.

In turn, CACAGAGAAGTTGTTGAG returned a remaining target (mRNA or protein) (fraction of control) of 0.78.

As for CAGGGAGTCAGGGAGGGC, the remaining target (mRNA or protein) (fraction of control) was 0.87.

Regarding CATAATACACAATAACAA, the remaining target (mRNA or protein) (fraction of control) stood at 0.61.

Turning to CCCAGAGAGATGACAGAT, the remaining target (mRNA or protein) (fraction of control) came out at 0.54.

In turn, CCCTGTGCCCTGTCCCAG gave a remaining target (mRNA or protein) (fraction of control) of 0.45.

The sequence CCGAAAGTGCCCTTGCCC came in with a remaining target (mRNA or protein) (fraction of control) of 0.44.

CCTAAGCCCCTGGTGACA returned a remaining target (mRNA or protein) (fraction of control) of 0.85.

The sequence CCTGAGTTGTCACTGGGT yielded a remaining target (mRNA or protein) (fraction of control) of 0.51.

As to CGAAAAGGTCAAGTGCTA, the remaining target (mRNA or protein) (fraction of control) turned out to be 0.59.

CGGTCCTCGGAGAACACA came in with a remaining target (mRNA or protein) (fraction of control) not below 1.

CTCGCTGTCCACACACTC came in with a remaining target (mRNA or protein) (fraction of control) of 0.39.

Sequence CTGGCTGACAGAGTGAGG displayed a remaining target (mRNA or protein) (fraction of control) of 0.41.

Sequence CTTTGACTTCTTTGACCC displayed a remaining target (mRNA or protein) (fraction of control) of 0.32.

In turn, GATAGTTTTCTTCCCTAC registered a remaining target (mRNA or protein) (fraction of control) not below 1.

GCCACGATGACTTCCTTC yielded a remaining target (mRNA or protein) (fraction of control) of 0.4.

In the case of GCCGTGAACTCCTCATCA, the remaining target (mRNA or protein) (fraction of control) was found to be 0.44.

As to GCCTCTCCATCCCTCCAA, the remaining target (mRNA or protein) (fraction of control) stood at 0.24.

Take GCGGCTGGCTGACAGAGT: the remaining target (mRNA or protein) (fraction of control) came to 0.39.

In turn, GCTGCTGTGTGCCTGCCA came in with a remaining target (mRNA or protein) (fraction of control) of 0.62.

For GGAGAACAAACTGGATGA, the remaining target (mRNA or protein) (fraction of control) is not below 1.

The sequence GGCAGCCCCTTTGACTTC registered a remaining target (mRNA or protein) (fraction of control) of 0.47.

GGCTTGAAGGGTGGGCTG displayed a remaining target (mRNA or protein) (fraction of control) of 0.59.

Consider GGTCAGGTGGTGTGATGG, for which the remaining target (mRNA or protein) (fraction of control) was not below 1.

Take GTGCCGCAAAAGGTCTTC: the remaining target (mRNA or protein) (fraction of control) came out at 0.34.

In the case of TAAAACCCGCAGGATAGT, the remaining target (mRNA or protein) (fraction of control) came to 0.26.

As for TACTCAGGTGTGCCGCAA, the remaining target (mRNA or protein) (fraction of control) worked out at 0.34.

The sequence TACTCCCCTCGTTTGTGC showed a remaining target (mRNA or protein) (fraction of control) not below 1.

Sequence TCAAAATACCTGGTGTCA returned a remaining target (mRNA or protein) (fraction of control) of 0.49.

On to TCCTCCTCCTCCTGCTTC, for which the remaining target (mRNA or protein) (fraction of control) worked out at 0.91.

Sequence TGCCATCATTCTTGAGGA returned a remaining target (mRNA or protein) (fraction of control) of 0.35.

The sequence TTTTCTTCCCTACCCCGC had a remaining target (mRNA or protein) (fraction of control) of 0.36.
